{
  "source": "paper PMC6917776",
  "about": "“Discovery of a chemical probe for PRDM9” (Nature Communications, 2019)",
  "key": {"HCC1143": {"test_system": "HCC1143", "test": "CelltiterGlo viability cell assay", "format": "cell-based", "method_in_brief": "(§1)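 CelltiterGlo luminescence, day 3 and day 6 readouts; compound 0.01–30 μM; data normalized to DMSO; n=3 biological replicates ± SEM.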"}, "HCC1806": {"test_system": "HCC1806", "test": "CelltiterGlo viability cell assay", "format": "cell-based", "conditions": "HCC1806, 3 day", "method_in_brief": "as §1"}},
  "data": [
    {"smiles": "COc1cc(OC)cc(-c2noc(N3CCN(C)C4(CCN(c5ccccc5)CC4)C3)n2)c1", "note": "[MRK-740N]", "values": [
      {"measurement": "viability Average", "setting": "HCC1143; HCC1143, 3 day, 0.01 uM", "result": 99.63},
      {"measurement": "viability Replicate 1", "setting": "HCC1143; HCC1143, 3 day, 0.01 uM", "result": 94.06},
      {"measurement": "viability Replicate 2", "setting": "HCC1143; HCC1143, 3 day, 0.01 uM", "result": 105.87},
      {"measurement": "viability Replicate 3", "setting": "HCC1143; HCC1143, 3 day, 0.01 uM", "result": 98.96},
      {"measurement": "viability Average", "setting": "HCC1143; HCC1143, 3 day, 0.03 uM", "result": 100.04},
      {"measurement": "viability Replicate 1", "setting": "HCC1143; HCC1143, 3 day, 0.03 uM", "result": 98.98},
      {"measurement": "viability Replicate 2", "setting": "HCC1143; HCC1143, 3 day, 0.03 uM", "result": 103.01},
      {"measurement": "viability Replicate 3", "setting": "HCC1143; HCC1143, 3 day, 0.03 uM", "result": 98.14},
      {"measurement": "viability Average", "setting": "HCC1143; HCC1143, 3 day, 0.1 uM", "result": 100.66},
      {"measurement": "viability Replicate 1", "setting": "HCC1143; HCC1143, 3 day, 0.1 uM", "result": 94.28},
      {"measurement": "viability Replicate 2", "setting": "HCC1143; HCC1143, 3 day, 0.1 uM", "result": 108.89},
      {"measurement": "viability Replicate 3", "setting": "HCC1143; HCC1143, 3 day, 0.1 uM", "result": 98.81},
      {"measurement": "viability Average", "setting": "HCC1143; HCC1143, 3 day, 0.3 uM", "result": 101.81},
      {"measurement": "viability Replicate 1", "setting": "HCC1143; HCC1143, 3 day, 0.3 uM", "result": 94.36},
      {"measurement": "viability Replicate 2", "setting": "HCC1143; HCC1143, 3 day, 0.3 uM", "result": 110.71},
      {"measurement": "viability Replicate 3", "setting": "HCC1143; HCC1143, 3 day, 0.3 uM", "result": 100.36},
      {"measurement": "viability Average", "setting": "HCC1143; HCC1143, 3 day, 1 uM", "result": 102.28},
      {"measurement": "viability Replicate 1", "setting": "HCC1143; HCC1143, 3 day, 1 uM", "result": 95.62},
      {"measurement": "viability Replicate 2", "setting": "HCC1143; HCC1143, 3 day, 1 uM", "result": 111.25},
      {"measurement": "viability Replicate 3", "setting": "HCC1143; HCC1143, 3 day, 1 uM", "result": 99.98},
      {"measurement": "viability Average", "setting": "HCC1143; HCC1143, 3 day, 3 uM", "result": 102.58},
      {"measurement": "viability Replicate 1", "setting": "HCC1143; HCC1143, 3 day, 3 uM", "result": 95.70},
      {"measurement": "viability Replicate 2", "setting": "HCC1143; HCC1143, 3 day, 3 uM", "result": 110.25},
      {"measurement": "viability Replicate 3", "setting": "HCC1143; HCC1143, 3 day, 3 uM", "result": 101.79},
      {"measurement": "viability Average", "setting": "HCC1143; HCC1143, 3 day, 9.5 uM", "result": 96.93},
      {"measurement": "viability Replicate 1", "setting": "HCC1143; HCC1143, 3 day, 9.5 uM", "result": 91.87},
      {"measurement": "viability Replicate 2", "setting": "HCC1143; HCC1143, 3 day, 9.5 uM", "result": 108.74},
      {"measurement": "viability Replicate 3", "setting": "HCC1143; HCC1143, 3 day, 9.5 uM", "result": 90.19},
      {"measurement": "viability Average", "setting": "HCC1143; HCC1143, 3 day, 30 uM", "result": 42.44},
      {"measurement": "viability Replicate 1", "setting": "HCC1143; HCC1143, 3 day, 30 uM", "result": 41.34},
      {"measurement": "viability Replicate 2", "setting": "HCC1143; HCC1143, 3 day, 30 uM", "result": 45.73},
      {"measurement": "viability Replicate 3", "setting": "HCC1143; HCC1143, 3 day, 30 uM", "result": 40.25},
      {"measurement": "viability Average", "setting": "HCC1143; HCC1143, 6 day, 0.03 uM", "result": 106.15},
      {"measurement": "viability Replicate 1", "setting": "HCC1143; HCC1143, 6 day, 0.03 uM", "result": 104.58},
      {"measurement": "viability Replicate 2", "setting": "HCC1143; HCC1143, 6 day, 0.03 uM", "result": 106.98},
      {"measurement": "viability Replicate 3", "setting": "HCC1143; HCC1143, 6 day, 0.03 uM", "result": 106.88},
      {"measurement": "viability Average", "setting": "HCC1143; HCC1143, 6 day, 0.1 uM", "result": 106.29},
      {"measurement": "viability Replicate 1", "setting": "HCC1143; HCC1143, 6 day, 0.1 uM", "result": 110.44},
      {"measurement": "viability Replicate 2", "setting": "HCC1143; HCC1143, 6 day, 0.1 uM", "result": 106.94},
      {"measurement": "viability Replicate 3", "setting": "HCC1143; HCC1143, 6 day, 0.1 uM", "result": 101.48},
      {"measurement": "viability Average", "setting": "HCC1143; HCC1143, 6 day, 0.3 uM", "result": 109.27},
      {"measurement": "viability Replicate 1", "setting": "HCC1143; HCC1143, 6 day, 0.3 uM", "result": 115.47},
      {"measurement": "viability Replicate 2", "setting": "HCC1143; HCC1143, 6 day, 0.3 uM", "result": 108.44},
      {"measurement": "viability Replicate 3", "setting": "HCC1143; HCC1143, 6 day, 0.3 uM", "result": 103.89},
      {"measurement": "viability Average", "setting": "HCC1143; HCC1143, 6 day, 1 uM", "result": 112.12},
      {"measurement": "viability Replicate 1", "setting": "HCC1143; HCC1143, 6 day, 1 uM", "result": 119.58},
      {"measurement": "viability Replicate 2", "setting": "HCC1143; HCC1143, 6 day, 1 uM", "result": 108.44},
      {"measurement": "viability Replicate 3", "setting": "HCC1143; HCC1143, 6 day, 1 uM", "result": 108.34},
      {"measurement": "viability Average", "setting": "HCC1143; HCC1143, 6 day, 3 uM", "result": 118.66},
      {"measurement": "viability Replicate 1", "setting": "HCC1143; HCC1143, 6 day, 3 uM", "result": 128.58},
      {"measurement": "viability Replicate 2", "setting": "HCC1143; HCC1143, 6 day, 3 uM", "result": 111.85},
      {"measurement": "viability Replicate 3", "setting": "HCC1143; HCC1143, 6 day, 3 uM", "result": 115.55},
      {"measurement": "viability Average", "setting": "HCC1143; HCC1143, 6 day, 9.5 uM", "result": 112.33},
      {"measurement": "viability Replicate 1", "setting": "HCC1143; HCC1143, 6 day, 9.5 uM", "result": 117.62},
      {"measurement": "viability Replicate 2", "setting": "HCC1143; HCC1143, 6 day, 9.5 uM", "result": 107.90},
      {"measurement": "viability Replicate 3", "setting": "HCC1143; HCC1143, 6 day, 9.5 uM", "result": 111.46},
      {"measurement": "viability Average", "setting": "HCC1143; HCC1143, 6 day, 30 uM", "result": 53.32},
      {"measurement": "viability Replicate 1", "setting": "HCC1143; HCC1143, 6 day, 30 uM", "result": 56.13},
      {"measurement": "viability Replicate 2", "setting": "HCC1143; HCC1143, 6 day, 30 uM", "result": 63.79},
      {"measurement": "viability Replicate 3", "setting": "HCC1143; HCC1143, 6 day, 30 uM", "result": 40.04},
      {"measurement": "viability Average", "setting": "HCC1806; 0.01 uM", "result": 114.56},
      {"measurement": "viability Replicate 1", "setting": "HCC1806; 0.01 uM", "result": 108.66},
      {"measurement": "viability Replicate 2", "setting": "HCC1806; 0.01 uM", "result": 106.14},
      {"measurement": "viability Replicate 3", "setting": "HCC1806; 0.01 uM", "result": 128.88},
      {"measurement": "viability Average", "setting": "HCC1806; 0.03 uM", "result": 112.72},
      {"measurement": "viability Replicate 1", "setting": "HCC1806; 0.03 uM", "result": 107.72},
      {"measurement": "viability Replicate 2", "setting": "HCC1806; 0.03 uM", "result": 100.89},
      {"measurement": "viability Replicate 3", "setting": "HCC1806; 0.03 uM", "result": 129.55},
      {"measurement": "viability Average", "setting": "HCC1806; 0.1 uM", "result": 114.82},
      {"measurement": "viability Replicate 1", "setting": "HCC1806; 0.1 uM", "result": 110.69},
      {"measurement": "viability Replicate 2", "setting": "HCC1806; 0.1 uM", "result": 103.88},
      {"measurement": "viability Replicate 3", "setting": "HCC1806; 0.1 uM", "result": 129.88},
      {"measurement": "viability Average", "setting": "HCC1806; 0.3 uM", "result": 114.56},
      {"measurement": "viability Replicate 1", "setting": "HCC1806; 0.3 uM", "result": 110.72},
      {"measurement": "viability Replicate 2", "setting": "HCC1806; 0.3 uM", "result": 101.60},
      {"measurement": "viability Replicate 3", "setting": "HCC1806; 0.3 uM", "result": 131.35},
      {"measurement": "viability Average", "setting": "HCC1806; 1 uM", "result": 117.58},
      {"measurement": "viability Replicate 1", "setting": "HCC1806; 1 uM", "result": 111.18},
      {"measurement": "viability Replicate 2", "setting": "HCC1806; 1 uM", "result": 107.64},
      {"measurement": "viability Replicate 3", "setting": "HCC1806; 1 uM", "result": 133.91},
      {"measurement": "viability Average", "setting": "HCC1806; 3 uM", "result": 114.75},
      {"measurement": "viability Replicate 1", "setting": "HCC1806; 3 uM", "result": 110.32},
      {"measurement": "viability Replicate 2", "setting": "HCC1806; 3 uM", "result": 101.81},
      {"measurement": "viability Replicate 3", "setting": "HCC1806; 3 uM", "result": 132.12},
      {"measurement": "viability Average", "setting": "HCC1806; 9.5 uM", "result": 100.22},
      {"measurement": "viability Replicate 1", "setting": "HCC1806; 9.5 uM", "result": 94.76},
      {"measurement": "viability Replicate 2", "setting": "HCC1806; 9.5 uM", "result": 91.96},
      {"measurement": "viability Replicate 3", "setting": "HCC1806; 9.5 uM", "result": 113.95},
      {"measurement": "viability Average", "setting": "HCC1806; 30 uM", "result": 31.36},
      {"measurement": "viability Replicate 1", "setting": "HCC1806; 30 uM", "result": 29.97},
      {"measurement": "viability Replicate 2", "setting": "HCC1806; 30 uM", "result": 27.69},
      {"measurement": "viability Replicate 3", "setting": "HCC1806; 30 uM", "result": 36.41}
    ]}
  ]
}
